# Assays:
# [1] = system: cultured human mast cells (CHMC); experiment: CHMC low cell density ionomycin activation: tryptase assay; type: cell-based; settings: low cell density; read-out: CHMC Ionomycin Tryptase
# [2] = system: cultured human mast cells (CHMC); experiment: CHMC low cell density IgE activation: tryptase assay; type: cell-based; settings: low cell density; read-out: CHMC anti-IgE Tryptase
# Summary of the method: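 Cells pelleted, taken up in warm MT, plated at 1000-1500/well, held 1 hr 37° C. Anti-IgE added, 30 min 37° C. Plates spun; supernatant mixed with tryptase substrate, 30 min RT.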
IC50 [1] [µM],IC50 [2] [µM],SMILES
> 10,0.51,COc1c(Cl)cc(Nc2ncc(F)c(Nc3ccc4c(c3)NC(=O)[C@H](C)O4)n2)cc1Cl [Compound R908946]
18,0.995,COc1ccc(Nc2nc(Nc3ccc4oc(CN(C)C)cc4c3)ncc2F)cc1Cl [Compound R926978]
> 10,3.09,COc1cc(Nc2nc(Nc3ccc(CN)cc3)ncc2F)cc(OC)c1 [Compound R950457]
> 10,1.37,O=C(COc1cccc(Nc2ncc(F)c(Nc3ccc(N4CCOCC4)cc3)n2)c1)NC1CC1 [Compound R945360]
> 10,0.043,CC1(C)Oc2ccc(Nc3nc(Nc4ccc5cc[nH]c5c4)ncc3F)nc2NC1=O [Compound R945444]
30,0.142,COc1cc(Nc2ncc(F)c(Nc3ccc4c(c3)C(N)CCO4)n2)cc(OC)c1 (racemic) [Compound R950426]
> 10,0.257,O=C(COc1cccc(Nc2ncc(F)c(NC3CC3)n2)c1)Nc1ccc(N2CCOCC2)cc1 [Compound R945365]
> 10,0.303,CNC(=O)COc1cccc(Nc2ncc(F)c(Nc3cccc(NC(C)=O)n3)n2)c1 [Compound R927093]
7.8,0.372,COc1cc(Nc2nc(Nc3ccc4cnn(C)c4c3)ncc2F)ccc1F [Compound R935449]
> 10,0.204,Cn1ncc2ccc(Nc3ncc(F)c(Nc4ccc5c(c4)OCCO5)n3)cc21 [Compound R935392]
> 10,6.95,CCN(CC)CCCNc1ncc(F)c(Nc2ccc3c(c2)C(=O)NC(=O)C3(C)C)n1 [Compound R950472]
> 10,0.29,Cc1cc(Nc2ncc(F)c(Nc3ccc4c(c3)C(=O)NC(=O)C4(C)C)n2)cc(Cl)c1O [Compound R909320]
> 10,1,O=C(COc1cccc(Nc2ncc(F)c(NC3CC3)n2)c1)NC1CCC1 [Compound R945364]
> 10,0.114,CNC(=O)COc1cccc(Nc2ncc(F)c(Nc3ccc4c(c3)[C@@H](N)CCO4)n2)c1 [Compound R950420]
9.09,1.67,CNC(=O)COc1cccc(Nc2ncc(F)c(Nc3ccc4c(c3)[C@H](NC(=O)OCc3ccccc3)CCO4)n2)c1 [Compound R950418]
> 10,0.496,COc1c(Cl)cc(Nc2ncc(F)c(Nc3ccc4c(c3)NC(=O)[C@@H](C)O4)n2)cc1Cl [Compound R908947]
> 10,0.15,CNC(=O)CCn1cc2cc(Nc3ncc(F)c(Nc4ccc5c(c4)NC(=O)C(C)(C)O5)n3)ccc2n1 [Compound R935453]
> 10,0.535,CNCC1Cc2cc(Nc3ncc(F)c(Nc4ccc(OC)c(Cl)c4)n3)ccc2O1 (racemic) [Compound R927045]
> 10,0.259,COc1ccc(Nc2nc(Nc3cccc(OCC(=O)NC4CC4)c3)ncc2F)cc1Cl [Compound R926967]
> 10,> 10,Fc1cnc(NC2CCC2)nc1Nc1ccc(N2CCOCC2)cc1 [Compound R945358]
5.48,0.085,COc1ccc(Nc2ncc(F)c(Nc3ccc4c(c3)NC(=O)C(CCO)O4)n2)cc1Cl (stereo not shown) [Compound R908951]
22.5,0.625,COc1cc(Nc2ncc(F)c(Nc3ccc(OC(F)(F)F)c(Cl)c3)n2)cc(OC)c1 [Compound R927067]
15.3,0.283,COc1cc(Nc2ncc(F)c(Nc3ccc(OC)c(Cl)c3)n2)cc(OC)c1 [Compound R927066]
> 10,> 10,CNC(=O)n1ccc2ccc(Nc3nc(Nc4cc(C)cc(C)c4)ncc3F)cc21 [Compound R927099]
> 10,0.213,CNC(=O)CCn1cc2cc(Nc3ncc(F)c(Nc4ccc(Cl)c(Cl)c4)n3)ccc2n1 [Compound R935452]
> 10,0.05,NC1CCOc2ccc(Nc3nc(Nc4ccc5cn[nH]c5c4)ncc3F)cc21 (racemic) [Compound R950423]

# — patent US8158621B2, “Methods of treating or preventing autoimmune diseases with 2,4-pyrimidinediamine compounds” (Rigel Pharmaceuticals, Inc., priority 2002, dated 2012)
